What all share (format): in vivo
Series [1] concerns Orobanche minor. Nature of the series: Test Example 5: soil irrigation treatment, parasitism of Orobanche minor on red clover. To be noted: for Average parasitism frequency per root: soil irrigation 20 ml/pot at 10, 20 and 30 days after sowing, untreated plot 2.08; for S4 bud formation per root: untreated plot 0.45. The procedure:
(§1) The red clover seeds were sowed in a pot packed with soil (1/10000 ares) and Orobanche minor seeds were sowed around the red clover seeds, followed by cultivation in a greenhouse. After 10, 20 and 30 days of the sowing, agent liquid prepared into a predetermined concentration was irrigation-treated at a ratio of 20 ml/pot.

Series [2] deals with Orobanche minor. Kind of series: Test Example 6: foliage application treatment, parasitism of Orobanche minor on red clover. To be noted: for Average parasitism frequency per root: foliage application at 10, 20 and 30 days after sowing, untreated plot 2.08; for S4 bud formation per root: untreated plot 0.45. From the text: (§2) The red clover seeds were sowed in a pot packed with soil (1/10000 ares) and Orobanche minor seeds were sowed around the red clover seeds, followed by cultivation in a greenhouse. After 10, 20 and 30 days of the sowing, sufficient amount of agent liquid diluted to a predetermined concentration with water was applied to the foliage using an atomizer, from single- to double-leaf stage of the red clover.

Series [3] relates to red clover. Kind of series: Test Example 5: phytotoxicity of soil irrigation treatment on red clover. To be noted: 2000 ppm, symptom growth inhibition. The procedure:
as §1

Series [4] has as its system Orobanche minor. Nature of the series: Test Example 4: seed soaking treatment, parasitism of Orobanche minor on red clover. To be noted: for S4 bud formation per root / Average parasitism frequency per root: seed soaking 24 h; for S4 bud formation per root: untreated plot 0.45; for Average parasitism frequency per root: untreated plot 2.08. The procedure: Red clover seeds were soaked for 24 hours in agent liquid which had been prepared into a predetermined concentration. The red clover seeds were sowed in a pot packed with soil (1/10000 ares) and Orobanche minor seeds were sowed around the red clover seeds, followed by cultivation in a greenhouse. Growth of the red clover and the parasitism frequency and growth of Orobanche minor were observed by visual observation.

In series [5] the test system is Orobanche minor. Kind of series: Test Example 1: seed soaking treatment, parasitism of Orobanche minor on red clover. The following applies: for Average parasitism frequency per root / S4 bud formation per root: seed soaking 24 h; for Average parasitism frequency per root: red clover host, untreated plot 2.55; for S4 bud formation per root: untreated plot 0.52. As to the method:
Red clover seeds were soaked for 24 hours in agent liquid which had been prepared into a predetermined concentration. The red clover seeds were sowed in a pot packed with soil (1/10000 ares) and Orobanche minor seeds were sowed around the red clover seeds, followed by cultivation in a greenhouse. Growth of the red clover and the parasitism frequency and growth of Orobanche minor were observed by visual observation. The growth of Orobanche minor was evaluated based on the following four steps. [table]

The subject of series [6] is Orobanche minor. Kind of series: Test Example 3: foliage application treatment, parasitism of Orobanche minor on red clover. To be noted: for Average parasitism frequency per root: foliage application at 10, 20 and 30 days after sowing, untreated plot 2.55; for S4 bud formation per root / parasitism frequency: foliage application; for S4 bud formation per root: untreated plot 0.52.
From the text: as §2

Series [7] has as its system Orobanche minor. Nature of the series: Test Example 2: soil irrigation treatment, parasitism of Orobanche minor on red clover. To be noted: for Average parasitism frequency per root: soil irrigation 20 ml/pot at 10, 20 and 30 days after sowing, untreated plot 2.55; for S4 bud formation per root: untreated plot 0.52. As to the method:
The red clover seeds were sowed in a pot packed with soil (1/10000 ares) and Orobanche minor seeds were sowed around the red clover seeds, followed by cultivation in a greenhouse. After 10, 20 and 30 days of the sowing, an agent liquid prepared into a predetermined concentration was irrigation-treated at a ratio of 20 ml/pot.

Series [8] relates to red clover. Nature of the series: Test Example 3: effect of foliage application on the host red clover.
From the text: as §2

Another series deals with parasitic plant. Nature of the series: Parasitic plant controlling activity (general statement). To be noted: general statement in the description.
Setting [9] is: seed soaking, all treatment plots (200 and 20 ppm).

Values joined by “and” are separate entries in the source; they are usually repeats but may differ in a detail not shown here. Identical values can stand only once.

Turning to `N#Cc1ccccc1NC(=O)c1snc(Cl)c1Cl` [CICA, N-(2-cyanophenyl)-3,4-dichloroisothiazole-5-carboxamide], the “Average parasitism frequency per root” value in the series with Orobanche minor [1] (20 ppm) was found to be 1.99 per root; with Orobanche minor [1] (200 ppm) it was 1.39 per root; with Orobanche minor [1] (2000 ppm), 0.15 per root; in the series on Orobanche minor [2] (20 ppm), 3.01 per root; in the series on Orobanche minor [2] (200 ppm) it was 2.05 per root; in the series with Orobanche minor [2] (2000 ppm) it was 0.44 per root. The “Average parasitism frequency per root” value with Orobanche minor [4] (20 ppm) turned out to be 1.36 per root; with Orobanche minor [4] (200 ppm), 1.15 per root. Besides, the “S4 bud formation per root” value was determined as 0.10 per root in the series with Orobanche minor [1] (soil irrigation, 20 ppm); 0.09 per root in the series on Orobanche minor [1] (soil irrigation, 200 ppm); 0.04 per root with Orobanche minor [1] (soil irrigation, 2000 ppm); 0.60 per root in the series with Orobanche minor [2] (foliage application, 20 ppm); 0.25 per root in the series with Orobanche minor [2] (foliage application, 200 ppm); 0.03 per root in the series with Orobanche minor [2] (foliage application, 2000 ppm). The “S4 bud formation per root” value in the series on Orobanche minor [4] (20 ppm) stood at 0.11 per root; in the series on Orobanche minor [4] (200 ppm) it was 0.09 per root. Besides, the parasitism frequency entry with Orobanche minor [1] (soil irrigation, 2000 and 200 ppm) is “reducing tendency”; in the series with Orobanche minor [2] (foliage application, 2000 ppm), “decreasing tendency”. In addition, the “S4 bud formation” value in the series on Orobanche minor [1] (soil irrigation, all treatment plots) is given as “reduced”; in the series on Orobanche minor [2] (foliage application, 2000 and 200 ppm), “decreasing tendency”; in the series on Orobanche minor [4] (setting [9]) it was “decreasing tendency”. Also, the “parasitism frequency decreasing tendency” value in the series with Orobanche minor [2] (foliage application, 200 ppm or less) is given as “unclear”. Moreover, the phytotoxicity result with red clover [3] is on record as “weak”. In addition, the “total parasitism frequency of Orobanche minor” value in the series with Orobanche minor [4] (setting [9]) is on record as “decreasing tendency”.

In the case of `O=C(O)c1ccnc(Cl)c1` [INA, 2-chloroisonicotinic acid], the “reduction of the S4 (bud formation)” value in the series on Orobanche minor [5] (seed soaking) is listed as “large”. Further, the “Average parasitism frequency per root” value amounted to 2.28 per root in the series on Orobanche minor [5] (20 ppm); 1.03 per root in the series on Orobanche minor [5] (200 ppm); 0.99 per root in the series with Orobanche minor [6] (2 ppm); 0.94 per root with Orobanche minor [6] (20 ppm); 1.49 per root with Orobanche minor [7] (2 ppm); 1.03 per root in the series on Orobanche minor [7] (20 ppm). The “S4 bud formation per root” value is recorded as 0.22 per root in the series with Orobanche minor [5] (20 ppm); 0.02 per root with Orobanche minor [5] (200 ppm); 0.05 per root with Orobanche minor [6] (2 ppm); 0.03 per root in the series on Orobanche minor [6] (20 ppm); 0.07 per root in the series with Orobanche minor [7] (soil irrigation, 2 ppm); 0.08 per root in the series with Orobanche minor [7] (soil irrigation, 20 ppm). In the series with Orobanche minor [5] (seed soaking, 200 ppm), the “number of total parasitized cases of Orobanche minor” value is reported as “reducing tendency”. For the same molecule, the parasitism frequency entry with Orobanche minor [6] (concentration not given) is “lowered”; with Orobanche minor [7] (soil irrigation, 200 ppm) it was “slightly lowered”. For the same molecule, the “growth of the host” value in the series on red clover [8] (200 ppm treatment plot) was “inhibited”.

Consider `C=CCOC1=NS(=O)(=O)c2ccccc21` [PBZ, probenazole], for which the “Average parasitism frequency per root” value with Orobanche minor [5] (20 ppm) is 1.50 per root; with Orobanche minor [5] (200 ppm) it was 1.59 per root; in the series on Orobanche minor [6] (20 ppm), 2.24 per root; in the series on Orobanche minor [6] (200 ppm), 1.75 per root; in the series with Orobanche minor [7] (2 ppm), 2.47 per root; in the series on Orobanche minor [7] (20 ppm), 3.17 per root. The “Average parasitism frequency per root” value with Orobanche minor [7] (200 ppm) was found to be 1.52 per root. Also, the “S4 bud formation per root” value in the series on Orobanche minor [5] (20 ppm) turned out to be 0.28 per root; in the series on Orobanche minor [5] (200 ppm) it was 0.29 per root; in the series with Orobanche minor [6] (20 ppm), 0.16 per root; in the series with Orobanche minor [6] (200 ppm) it was 0.18 per root; in the series on Orobanche minor [7] (soil irrigation, 2 ppm) it was 0.13 per root; in the series on Orobanche minor [7] (soil irrigation, 20 ppm) it was 0.08 per root. Moreover, in the series with Orobanche minor [7] (soil irrigation, 200 ppm), the “S4 bud formation per root” value is 0.08 per root.

In the case of `O=C(O)c1ccccc1O` [SA, salicylic acid], the “Average parasitism frequency per root” value is on record as 2.09 per root in the series with Orobanche minor [5] (20 ppm); 2.17 per root in the series on Orobanche minor [5] (200 ppm); 1.91 per root with Orobanche minor [6] (2 ppm); 1.75 per root in the series on Orobanche minor [7] (2 ppm); 2.47 per root with Orobanche minor [7] (20 ppm). Besides, the “S4 bud formation per root” value is given as 0.38 per root with Orobanche minor [5] (20 ppm); 0.44 per root in the series on Orobanche minor [5] (200 ppm); 0.17 per root in the series with Orobanche minor [6] (2 ppm); 0.38 per root in the series with Orobanche minor [6] (20 ppm); 0.06 per root in the series on Orobanche minor [7] (soil irrigation, 2 ppm); 0.03 per root in the series with Orobanche minor [7] (soil irrigation, 20 ppm). The parasitism frequency result in the series with Orobanche minor [6] (200 ppm) was “large”. Moreover, the “red clover withered (fraction of plants per pot)” value in the series with red clover [8] (first treatment with 200 ppm, two pots) is 4/6 and 1/5. In addition, the “parasitic plant controlling activity” value in the series on parasitic plant is reported as “not so high”.

The record behind these values is patent US20100009853A1, “PARASITIC PLANT CONTROL AGENT AND USE THEREOF” (Nihon Nohyaku Co., Ltd, priority 2006, published 2010).
